# Experiment: in vivo
# Procedure: After full validation, the LC-ESI-MS/MS method was used to analyze large batches of beagle dog plasma. […] The corresponding pharmacokinetic parameters were generated by fitting plasma concentration profiles to a non-compartmental model. These are summarized in Table 3, expressed as the mean ± SD (n = 5).
# Quantitative analysis was conducted on a 1290 UPLC-photodiode array 6460 triple quadrupole mass spectrometry system (LC-MS/MS, Agilent Technologies, Palo Alto, CA, USA). Analysis was carried out on. Separation of analytes was performed on a reversed phase Agilent Zorbax XDB-C18 HPLC column (2.1 mm × 50 mm, particle size 3.5 μm) with the column oven set to 30 °C. The elution gradient was carried out with a binary solvent system consisting of an aqueous solution of 0.4% v/v formic acid in water (A) and acetonitrile (B) at a flow rate of 0.15 mL/min. Optimized separation was obtained according to a linear gradient (0–2 min, 2% B; 2–4 min, 2–12% B; 4–8 min, 12–20% B; 8–14 min, 20–28% B; […], 28–90% B). MS/MS conditions were as follows: negative ion mode, drying gas (N2) flow rate 8.0 L/min, drying gas temperature 300 °C, declustering potential 150 V, nebulizer pressure 45 psi, ESI Vcap 3500 V, sheath gas temperature 300 °C, sheath gas flow 12 L/min, nozzle voltage 500 V. The mass transition of gastrodin (m/z 331.1→123.0, CE: 3 eV), parishin (m/z 995.4→727.0, CE: 42 eV), parishin B (m/z 727.3→423.0, CE: 20 eV), parishin C (m/z 727.3→423.1, CE: 20 eV), parishin E (m/z 459.3→110.9, CE: 19 eV) and bergenin (m/z 327.0→234.0, CE: 4 eV).
# Adult male […] beagle dogs (12 kg ± 0.020 kg) were purchased from Beijing Shahe Bio-Technology (Beijing, China; certificate No. SCXK2014-0007). Before drug administration, the dogs were fasted for 12 h with free access to water. They were maintained on a 12 h light-dark cycle (light on from 6:00 to 18:00 h) at ambient temperature (22–24 °C) with 60% relative humidity. The animals were observed twice daily and body weights were recorded once per day to assess their general health. All experimental protocols on animals were carried out according to the Guidelines of the Committee on the Care and Use of Laboratory Animals of China.
# Fifteen beagle dogs were randomly divided into three groups to receive an intragastric dose of tall Gastrodia capsules (0.125, 0.25 and 0.5 g/kg). Capsules were ultrasonically dissolved in pure water and suspended at concentrations of 5, 10 and 20 mg/mL for intragastric administration. […] The HPLC quantitative analysis was based on the previous report with some modification. After administration, serial blood samples (about 2.00 mL) were collected from the foreleg vein […] into heparin-containing capillary tubes at 10, 20, 30, 45, 60, 120, 180, 240, 480, 720 and 1440 min. Blood samples were promptly centrifuged at 5000 rpm for 5 min, and the plasma was separated and stored at −20 °C until analysis.
# Plasma samples were thawed to 4 °C before processing. An aliquot of 200 μL of the plasma sample was transferred into an Eppendorf tube, and 1000 μL of ice-cold 1% formic acid methanol containing IS (10 μL, 2.0 μg/mL) was added to precipitate the plasma proteins. Samples were then vortexed for 3 min and centrifuged at 12,000 rpm for 10 min. The supernatant was transferred and evaporated to dryness under a gentle stream of nitrogen at 40 °C. The residue was reconstituted in 200 μL of 5.0% methanol–water, and a 10 μL aliquot was injected for analysis.
# [1] = male, beagle, dog, in vivo, po, 0.125 g/kg
# [2] = male, beagle, dog, in vivo, po, 0.25 g/kg
# [3] = male, beagle, dog, in vivo, po, 0.5 g/kg
SMILES,AUC(0-inf) [1] [ng·h/mL],AUC(0-t) [1] [ng·h/mL],Cmax [1] [ng/mL],MRT inf [1] [h],MRT last [1] [h],Tmax [1] [h],half-life [1] [h],AUC(0-inf) [2] [ng·h/mL],AUC(0-t) [2] [ng·h/mL],Cmax [2] [ng/mL],MRT inf [2] [h],MRT last [2] [h],Tmax [2] [h],half-life [2] [h],AUC(0-inf) [3] [ng·h/mL],AUC(0-t) [3] [ng·h/mL],Cmax [3] [ng/mL],MRT inf [3] [h],MRT last [3] [h],Tmax [3] [h],further results
"O=C(CC(O)(CC(=O)OCc1ccc(OC2OC(CO)C(O)C(O)C2O)cc1)C(=O)OCc1ccc(OC2OC(CO)C(O)C(O)C2O)cc1)OCc1ccc(OC2OC(CO)C(O)C(O)C2O)cc1 (centres unmarked) [Parishin, parishin]",899 ± 299,868 ± 314,388 ± 116,2 ± 0.3,1.8 ± 0.42,1 ± 0.56,1.15 ± 0.18,1520 ± 832,1500 ± 836,462 ± 230,2.65 ± 0.44,2.49 ± 0.4,1.55 ± 0.62,1.38 ± 0.34,3280 ± 1370,3270 ± 1370,969 ± 292,2.5 ± 0.35,2.48 ± 0.36,1.45 ± 0.76,"Mean plasma clearance (CL) (male, beagle, dog, in vivo, po): 52.3 mL/min/kg; CL (plasma clearance) [1]: 44.8 ± 16.8 mL/min/kg; CL (plasma clearance) [2]: 59.3 ± 29.2 mL/min/kg; CL (plasma clearance) [3]: 53 ± 27.5 mL/min/kg; half-life [3]: 1.05 ± 0.16 h"
"O=C(O)CC(O)(CC(=O)OCc1ccc(OC2OC(CO)C(O)C(O)C2O)cc1)C(=O)OCc1ccc(OC2OC(CO)C(O)C(O)C2O)cc1 (centres unmarked) [Parishin B, parishin B]",1570 ± 533,1550 ± 530,526 ± 143,2.32 ± 0.25,2.25 ± 0.26,1.25 ± 0.69,1.08 ± 0.11,2720 ± 1140,2700 ± 1130,746 ± 320,2.84 ± 0.44,2.78 ± 0.42,1.8 ± 0.45,1.18 ± 0.29,4720 ± 2330,4700 ± 2330,1220 ± 562,2.8 ± 0.42,2.76 ± 0.44,2 ± 0.71,"Mean plasma clearance (CL) (male, beagle, dog, in vivo, po): 14.5 mL/min/kg; CL (plasma clearance) [1]: 12 ± 6.5 mL/min/kg; CL (plasma clearance) [2]: 13 ± 3.83 mL/min/kg; CL (plasma clearance) [3]: 18.5 ± 14 mL/min/kg; half-life [3]: 1.17 ± 0.22 h"
"OCc1ccc(O[C@@H]2O[C@H](CO)[C@@H](O)[C@H](O)[C@H]2O)cc1 [Gastrodin, gastrodin]",5080 ± 2110,4890 ± 2060,1200 ± 120,3.33 ± 1.09,2.98 ± 1.01,1.1 ± 0.52,1.86 ± 0.67,9170 ± 1790,8830 ± 1860,2050 ± 495,3.8 ± 0.28,3.46 ± 0.29,1.75 ± 0.9,1.9 ± 0.26,17600,17000,3760 ± 778,3.93 ± 0.99,3.54 ± 0.69,2 ± 0.71,"Time after administration at which detected in plasma (beagle dog plasma, intragastric capsules, all three dosage levels): 10 min; CL (plasma clearance) (beagle dog plasma, intragastric tall Gastrodia capsules, high dose 0.5 g/kg, mean ± SD, n = 5): 3.5 ± 0.83 mL/min/kg; CL (plasma clearance) (beagle dog plasma, intragastric tall Gastrodia capsules, low dose 0.125 g/kg, mean ± SD, n = 5): 3.5 ± 2.17 mL/min/kg; CL (plasma clearance) (beagle dog plasma, intragastric tall Gastrodia capsules, medium dose 0.25 g/kg, mean ± SD, n = 5): 3.33 ± 0.67 mL/min/kg; Mean plasma clearance (CL) (beagle dogs, mean over the three intragastric dose levels of tall Gastrodia capsules): 3.3 mL/min/kg; half-life [3]: 2.09 ± 0.68 h"
"O=C(CC(O)(CC(=O)OCc1ccc(O[C@@H]2O[C@H](CO)[C@@H](O)[C@H](O)[C@H]2O)cc1)C(=O)O)OCc1ccc(O[C@@H]2O[C@H](CO)[C@@H](O)[C@H](O)[C@H]2O)cc1 [Parishin C, parishin C]",359 ± 99.3,349 ± 100,107 ± 29.4,2.7 ± 0.28,2.47 ± 0.28,1.35 ± 0.6,1.37 ± 0.18,578 ± 200,567 ± 198,144 ± 55.1,3.31 ± 0.59,3.14 ± 0.54,2 ± 0.71,1.56 ± 0.41,1100 ± 527,1090 ± 523,243 ± 99.6,3.25 ± 0.72,3.18 ± 0.69,2.4 ± 0.55,"Mean plasma clearance (CL) (male, beagle, dog, in vivo, po): 16 mL/min/kg; CL (plasma clearance) [1]: 12 ± 3.83 mL/min/kg; CL (plasma clearance) [2]: 15.2 ± 3.83 mL/min/kg; CL (plasma clearance) [3]: 21 ± 17.5 mL/min/kg; half-life [3]: 1.29 ± 0.36 h"

# From PMC6150220, “An Optimized and Sensitive Pharmacokinetic Quantitative Method of Investigating Gastrodin, Parishin, and Parishin B, C and E in Beagle Dog Plasma using LC-MS/MS after Intragastric Administration of Tall Gastrodia Capsules” (Molecules : A Journal of Synthetic Chemistry and Natural …, 2017)
